# Measurements: patent US9926284B2, “Substituted N-(1,2,4-triazol-3-yl)Arylcarboxamide compounds and their use as herbicides” (BASF SE, priority 2013, dated 2018)
# Marks after values point to notes of the source that are not given here.
# Tests used:
# Format in all cases: in vivo
# Agrostis spica-venti = experiment: greenhouse pre-emergence treatment, herbicidal activity; details: pre-emergence (values labeled *), 1000 g/ha, scale 0 to 100
# From the text: (§1) The seeds of the test plants were sown separately for each species. For the pre-emergence treatment, the active ingredients, which had been suspended or emulsified in water, were applied directly after sowing by means of finely distributing nozzles. The containers were irrigated gently to promote germination and growth and subsequently covered with transparent plastic hoods until the plants had rooted. This cover caused uniform germination of the test plants, unless this has been impaired by the active ingredients. Depending on the species, the plants were kept at 10-25° C. or 20-35° C. The test period extended over 2 to 4 weeks. During this time, the plants were tended, and their response to the individual treatments was evaluated. Evaluation was carried out using a scale from 0 to 100. 100 means no emergence of the plants, or complete destruction of at least the aerial moieties, and 0 means no damage, or normal course of growth. A good herbicidal activity is given at values of at least 70 and a very good herbicidal activity is given at values of at least 85. The plants used in the greenhouse experiments belonged to the following species: [table]
# Amaranthus retroflexus [1] = experiment: as above; details: pre-emergence (values labeled *), 1000 g/ha, scale 0 to 100
# From the text: as §1
# Echinochloa crus-galli [2] = experiment: as above; details: pre-emergence (values labeled *), 1000 g/ha, scale 0 to 100
# From the text: as §1
# Setaria faberi = experiment: as above; details: pre-emergence (values labeled *), 1000 g/ha, scale 0 to 100
# From the text: as §1
# Abutilon theophrasti [3] = experiment: greenhouse post-emergence treatment, herbicidal activity; details: 1000 g/ha, scale 0 to 100
# From the text: (§2) The seeds of the test plants were sown separately for each species. For the post-emergence treatment, the test plants were first grown to a height of 3 to 15 cm, depending on the plant habit, and only then treated with the active ingredients which had been suspended or emulsified in water. For this purpose, the test plants were either sown directly and grown in the same containers, or they were first grown separately as seedlings and transplanted into the test containers a few days prior to treatment. Depending on the species, the plants were kept at 10-25° C. or 20-35° C. The test period extended over 2 to 4 weeks. During this time, the plants were tended, and their response to the individual treatments was evaluated. Evaluation was carried out using a scale from 0 to 100. 100 means no emergence of the plants, or complete destruction of at least the aerial moieties, and 0 means no damage, or normal course of growth. A good herbicidal activity is given at values of at least 70 and a very good herbicidal activity is given at values of at least 85. The plants used in the greenhouse experiments belonged to the following species: [table]
# Amaranthus retroflexus [4] = experiment: as above; details: 1000 g/ha, scale 0 to 100
# From the text: as §2
# Avena fatua = experiment: as above; details: 1000 g/ha, scale 0 to 100
# From the text: as §2
# Echinochloa crus-galli [5] = experiment: as above; details: 1000 g/ha, scale 0 to 100
# From the text: as §2
# Setaria viridis = experiment: as above; details: 1000 g/ha, scale 0 to 100
# From the text: as §2
# Abutilon theophrasti [6] = experiment: greenhouse pre-emergence treatment, herbicidal activity; details: pre-emergence (values labeled *), 1000 g/ha, scale 0 to 100
# From the text: as §1
# Alopecurus agrestis = experiment: greenhouse post-emergence treatment, herbicidal activity; details: 1000 g/ha, scale 0 to 100
# From the text: as §2
SMILES,damage [%] in weed species IV (APESV) (Agrostis spica-venti),damage [%] in weed species III (AMARE) (Amaranthus retroflexus [1]),damage [%] in weed species VI (ECHCG) (Echinochloa crus-galli [2]) [%],damage [%] in weed species VII (SETFA) (Setaria faberi),damage [%] in weed species I (ABUTH) (Abutilon theophrasti [3]) [%],damage [%] in weed species III (AMARE) (Amaranthus retroflexus [4]),damage [%] in weed species V (AVEFA) (Avena fatua) [%],damage [%] in weed species VI (ECHCG) (Echinochloa crus-galli [5]) [%],damage [%] in weed species VIII (SETVI) (Setaria viridis) [%],damage [%] in weed species I (ABUTH) (Abutilon theophrasti [6]) [%],damage [%] in weed species II (ALOMY) (Alopecurus agrestis) [%]
"CCn1cnnc1NC(=O)c1c(F)cc(Cl)c(S(C)(=O)=O)c1Cl [cpd. 2, 2,4-dichloro-N-(4-ethyl-1,2,4-triazol-3-yl)-6-fluoro-3-methyl-sulfonyl-benzamide]",80* %,95%,98,85* %,100,75%,75,90,100,,
"CCn1cnnc1NC(=O)c1c(F)cc(Cl)c(SC)c1Cl [cpd. 3, 2,4-dichloro-N-(4-ethyl-1,2,4-triazol-3-yl)-6-fluoro-3 methyl-sulfanyl-benzamide]",,90%,75,70* %,100,100%,80,98,100,90,
"CSc1c(Cl)cc(F)c(C(=O)Nc2nncn2C)c1Cl [cpd. 4, 2,4-dichloro-6-fluoro-3-methylsulfanyl-N-(4-methyl-1,2,4-triazol-3-yl)benzamide]",70* %,"100, 100* %",,70* %,100,"100, 100* %",90,95,100,70,90
"Cn1cnnc1NC(=O)c1c(F)cc(Cl)c(S(C)(=O)=O)c1Cl [cpd. 5, 2,4-dichloro-6-fluoro-3-methylsulfonyl-N-(4-methyl-1,2,4-triazol-3-yl)benzamide]",70* %,85%,80,85* %,98,90%,,98,95,80,85
